# Data published in patent publication US20240398814A1, “KRAS INHIBITOR AND HDAC INHIBITOR COMBINATION FOR THE TREATMENT OF CANCER” (Northwestern University, priority 2023, published 2024).
# What was measured:
# KL NSCLC GEMM [1] = test: In vivo entinostat and trametinib treatment, 42 days, tumor burden; set-up: species or system mouse; settings: endpoint after 42 days; entinostat 10 mg/kg, trametinib 1 mg/kg, oral gavage
# Experimental: Bioluminescent imaging was performed biweekly using an IVIS Spectrum (Caliper Life Sciences) using Living Image software (Perkin Elmer). Mice were injected intraperitoneally with 150 mg/kg D-luciferin (Caliper Life Sciences), anesthetized with isoflurane and imaged both ventrally and dorsally 10 minutes post luciferin injection. The total lung photon flux for each animal is calculated by the combination of ventral and dorsal photon flux calculated within a region of interest (ROI) encompassing the thorax.
# Mice were intratracheally intubated with Lentivirus expressing Cre recombinase to initiate tumorigenesis and imaged […] starting 4 weeks post-Cre. Treatment was initiated at day 34 post-Cre (FIG. 5). In vivo treatment doses were selected based on publications (76-79). […]
# Total lung tumor burden was quantitated from H&E sections using Inform v2.1 image analysis software (Cambridge Research and Instrumentation) in a non-biased manner. […] The quantitation data from this analysis was then used to calculate the percentage of tumor area as normalized to total lung area (tumor area+normal lung area).
# Quantitation of each individual tumor was measured from H&E sections using morphometric analysis in Panoramic viewer software (Perkin Elmer), which calculates the size of each identified tumor by area in squared microns. […]
# H460 cells = test: qRT-PCR of chemokine gene expression in H460 cells; assay type: cell-based, human; settings: 1 uM entinostat 4 days, 5 uM BRD3308 4 days
# Experimental: All cell lines were incubated at 37° C. and were maintained in an atmosphere containing 5% CO2. Cells were tested for Mycoplasma (Lonza) using manufacturer's conditions and were deemed negative. Cells were grown in Dulbecco's modified Eagles medium (DMEM) plus 10% fetal bovine serum (Gibco) and were continuously maintained under antibiotic selection for stable cell lines. Proliferation assays were performed by plating 2×10^3 cells per well of a 6-well plate, and cells were counted 5 days post-plating. Drug treatments were carried out using the following doses: entinostat 1 uM or 2 uM, RGFP966 10uM, TSA 0.5 uM, BRD3308 5 uM, trametinib 5 nM, 10 nM, and 25 nM, and MRTX1133 10 nM, 25 nM, and 50 nM, as indicated for the indicated treatment lengths. Media was changed and fresh drug added every 2 days.
# (§1) mRNA was prepared using the Quick-RNA Miniprep kit (Zymo Research), including DNase treatment. cDNA was synthesized from 2 μg of RNA using SuperScript III (Life Technologies), and qPCR was carried out with diluted cDNA, appropriate primers, and SYBR Green PCR master mix (ThermoFisher Scientific) using a C1000 Thermal Cycler (BioRad). Relative mRNA levels were calculated using the delta Ct method, using Tbp as an internal control.
# KL NSCLC GEMM [2] = test: Short-term (5 day) in vivo entinostat treatment, qRT-PCR on lung tumors and liver; set-up: species or system mouse; settings: 10 mg/kg/day entinostat, oral gavage, 5 days
# Experimental: KL mice were intratracheally intubated with lentivirus expressing Cre recombinase to initiate tumorigenesis and imaged biweekly by BLI starting 4 weeks after Cre administration. When tumor burden in all mice was greater than 5×107 photons/see as determined by BLI, treatment was initiated. Mice were randomized and treated daily by oral gavage for 5 days with vehicle or 10 mg/kg entinostat. In vivo treatment doses were selected based on publications (39, 69-71). Entinostat was diluted to 1 mg/mL in vehicle (0.5% Methyl cellulose in water), vortexed, sonicated 10 minutes, and administered at 10 mg/kg. Drug and vehicle was administered starting at ˜9am daily throughout the duration of treatment. The experiment was terminated after 5 days of treatment, at which time primary lung tumors and liver were isolated by dissection and immediately flash frozen.
# as §1
# Next, pharmacological inhibition of HDAC3 was assessed for impacting HRCG expression in vivo as observed in cell culture experiments (FIG. 12B, 18D-G). Lung tumorigenesis was initiated in KL GEMM mice, and disease growth was monitored over time using bioluminescence imaging (BLI) potentiated by the Rosa26^LSL-luferase genetic allele. When tumor burden was established in all mice (BLI >5×10^7 photons/sec), mice were randomized and treatment was initiated. Mice were treated daily for 5 days with vehicle or 10 mg/kg/day entinostat administered by oral gavage, after which lung tumors and liver were collected (FIG. 14C). Using qRT-PCR, gene expression of HDAC3 target genes in lung tumors and liver was assessed. […] To confirm that entinostat treatment was engaging on-target effects in the liver samples, the gene expression of canonical HDAC3 liver target genes Nr1d1 and Arntl was assessed (FIG. 14E).
smiles,measurement,setting,value
Nc1ccccc1NC(=O)c1ccc(CNC(=O)OCc2cccnc2)cc1 [entinostat],tumor burden quantitated from H&E-stained sections (tumor area as percentage of total lung area),KL NSCLC GEMM [1],neither entinostat nor trametinib alone impacted tumor burden
same,chemokine (SASP) gene expression,H460 cells,induced the expression of these genes
same,"Cxc110 expression in vivo, lung tumors versus liver",KL NSCLC GEMM [2],induced upon entinostat treatment selectively in lung tumor cells
same,HRCG expression in livers from the same mice,KL NSCLC GEMM [2],did not induce HRCG expression
same,HRCG expression in lung tumors,KL NSCLC GEMM [2],potently induced HRCG expression
same,Nr1d1 and Arntl gene expression in the liver,KL NSCLC GEMM [2],impacted Nr1d1 and Arntl gene expression in the liver
